Like-named read-outs stand apart in the source and are kept apart here. Starred links: 1 amine or outer side, 2 acyl side, 3 side chain; linkers in the order of their positions; H or OH if unused. Positions of bridges follow the written chain, without caps; N, C: chain ends. Residues, ends and D or L forms follow the SMILES beside them. *: point of attachment. C20 diacid = O=C(O)CCCCCCCCCCCCCCCCCCC(=O)*; γGlu = O=C(O)[C@H](CCC(=O)[*:2])N[*:1]
How the values were obtained:
[1] = target: T1, human amylin receptor (amylin 3(a) receptor: human calcitonin receptor + RAMP-3) (Homo sapiens, UniProt O60896+P30988); assay: Assay (II)a functional CRE-luciferase assay, human amylin receptor; type: cell-based; details: Table 2; BHK amylin 3(a)-receptor/CRE-luc cells
T1 construct: expressed in transfected cells; host or cells: BHK570
T1 sequence (P30988 25-474): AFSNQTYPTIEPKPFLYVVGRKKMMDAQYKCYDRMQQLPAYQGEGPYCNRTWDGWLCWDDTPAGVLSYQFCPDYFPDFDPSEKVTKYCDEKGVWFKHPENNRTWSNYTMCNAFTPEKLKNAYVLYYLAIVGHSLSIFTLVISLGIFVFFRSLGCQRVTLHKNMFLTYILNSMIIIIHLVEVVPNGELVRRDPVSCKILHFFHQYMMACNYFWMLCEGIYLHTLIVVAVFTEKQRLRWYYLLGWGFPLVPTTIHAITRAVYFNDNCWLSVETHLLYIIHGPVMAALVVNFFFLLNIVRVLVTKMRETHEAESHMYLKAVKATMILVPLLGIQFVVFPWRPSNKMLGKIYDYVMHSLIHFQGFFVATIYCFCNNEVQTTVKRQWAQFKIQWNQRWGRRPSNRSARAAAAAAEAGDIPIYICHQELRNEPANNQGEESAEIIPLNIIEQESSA
T1 sequence (O60896 24-148 partner): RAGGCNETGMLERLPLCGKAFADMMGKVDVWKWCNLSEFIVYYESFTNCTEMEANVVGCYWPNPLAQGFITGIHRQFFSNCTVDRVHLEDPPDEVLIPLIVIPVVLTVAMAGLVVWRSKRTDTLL
From the text: (§1) 1. Luciferase Assay Outline
(§2) Activation of calcitonin and amylin (coexpression of calcitonin receptor and receptor activity modifying proteins (RAMP)) receptors lead to increased intracellular concentrations of cAMP. Consequently, transcription is activated by promoters containing multiple copies of the cAMP response element (CRE). It is thus possible to measure amylin activity by the use of a CRE luciferase reporter gene introduced into BHK cells also expressing calcitonin or amylin receptors.
(§3) A BHK570 cell line was stably transfected with the human calcitonin receptor and a CRE-responsive luciferase reporter gene. The cell line was further transfected with RAMP-3, using standard methods. This turns the calcitonin receptor into an amylin 3(a) receptor. Methotrexate, Neomycin, and Hygromycin are selection markers for luciferase, the calcitonin receptor, and RAMP-3, respectively.
(§4) To perform activity assays, BHK calcitonin (a) receptor- or amylin 3(a)-receptor/CRE-luc cells were seeded in white 96 well culture plates at a density of about 20.000 cells/well. […] Further, 50 μl/well of standard or sample in assay buffer were added. After 3 hours incubation at 37° C. and 5% CO2, the assay medium with standard or sample were removed and replaced by 100 μl/well PBS. Further, 100 μl/well LucLite™ was added. The plates were sealed and incubated at room temperature for 30 minutes. Finally, luminescence was measured on a TopCounter (Packard) in SPC (single photon counting) mode.

[2] = target: T2, human calcitonin receptor (Homo sapiens, UniProt P30988); assay: Assay (II)a functional CRE-luciferase assay, human calcitonin receptor; type: cell-based; details: Table 7; human calcitonin (CTa) receptor
T2 construct: expressed in transfected cells; host or cells: BHK570
T2 sequence (P30988 25-474): T1 sequence (P30988 25-474)
From the text: as §1, §2, §3, §4

[3] = Assay (IV) determination of solubility; type: physicochemical
Outline: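 Stock ~500 nmol/ml in water; 1:1 with 100 mM buffer, pH 3.0–8.0 (glycylglycine ≤5.0, bistrispropane ≥6.0); 18 h RT; spin; HPLC quantitation of soluble polypeptide.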

[4] = bistrispropane buffer, pH 6, pH 6.0, read-out: Solubility pH 6.0
[5] = bistrispropane buffer, pH 6.5, pH 6.5, read-out: Solubility pH 6.5
[6] = bistrispropane buffer, pH 7, pH 7.0, 18 hours at room temperature, Table 3, read-out: Solubility pH 7.0
[7] = bistrispropane buffer, pH 7, pH 7.0, read-out: Solubility pH 7.0
[8] = bistrispropane buffer, pH 7.5, pH 7.5, read-out: Solubility pH 7.5
[9] = bistrispropane buffer, pH 8, pH 8.0, read-out: Solubility pH 8.0
[10] = glycylglycine buffer, pH 3, pH 3.0, read-out: Solubility pH 3.0
[11] = glycylglycine buffer, pH 4, pH 4.0, 18 hours at room temperature, Table 2, read-out: Solubility pH 4.0
[12] = glycylglycine buffer, pH 4, pH 4.0, read-out: Solubility pH 4.0
[13] = glycylglycine buffer, pH 5, pH 5.0, read-out: Solubility pH 5.0

EC50 [1] [nM]	EC50 [2] [nM]	solubility at 18 h [3, 4] [µM]	solubility at 18 h [3, 5] [µM]	solubility at 18 h [3, 6] [µM]	solubility at 18 h [3, 7] [µM]	solubility at 18 h [3, 8] [µM]	solubility at 18 h [3, 9] [µM]	solubility at 18 h [3, 10] [µM]	solubility at 18 h [3, 11] [µM]	solubility at 18 h [3, 12] [µM]	solubility at 18 h [3, 13] [µM]	SMILES
0.179	0.259	> 200	> 200	> 200	> 200	> 200	> 200	> 200	> 200	> 200	> 200	CC[C@H](C)[C@H](NC(=O)[C@@H]1CCCN1C(=O)CNC(=O)[C@H](Cc1ccccc1)NC(=O)[C@H](CC(N)=O)NC(=O)[C@H](CC(N)=O)NC(=O)[C@H](CO)NC(=O)[C@H](CO)NC(=O)[C@H](Cc1cnc[nH]1)NC(=O)[C@H](Cc1cnc[nH]1)NC(=O)[C@H](CC(C)C)NC(=O)[C@H](Cc1ccccc1)NC(=O)[C@H](CCC(=O)O)NC(=O)[C@H](C)NC(=O)[C@H](CC(C)C)NC(=O)[C@H](CCCNC(=N)N)NC(=O)[C@H](CCC(N)=O)NC(=O)[C@@H](NC(=O)[C@H](C)NC(=O)[C@@H]1CSSC[C@H](NC(=O)CC[C@H](NC(=O)CCCCCCCCCCCCCCCCCCC(=O)O)C(=O)O)C(=O)N[C@@H](CC(N)=O)C(=O)N[C@@H]([C@@H](C)O)C(=O)N[C@@H](C)C(=O)N[C@@H]([C@@H](C)O)C(=O)N1)[C@@H](C)O)C(=O)N[C@@H](CC(C)C)C(=O)N1CCC[C@H]1C(=O)N1CCC[C@H]1C(=O)N[C@H](C(=O)N[C@@H](CC(N)=O)C(=O)N[C@H](C(=O)NCC(=O)N[C@@H](CO)C(=O)N[C@@H](CC(N)=O)C(=O)N[C@H](C(=O)N[C@@H](Cc1ccc(O)cc1)C(N)=O)[C@@H](C)O)C(C)C)[C@@H](C)O [Example 28, N-alpha-[(S)-4-Carboxy-4-(19-carboxynonadecanoylamino)butyryl]-[des1,Glu14,His17]-pramlintide] ({C20 diacid-γGlu}-CNTATCATQRLAEFLHHSSNNFGPILPPTNVGSNTY-NH2; disulfide 1-6)
0.465	0.547	> 200	> 200	> 200	> 200	> 200	> 200	> 200	> 200	> 200	> 200	CC[C@H](C)[C@H](NC(=O)[C@@H]1CCCN1C(=O)CNC(=O)[C@H](Cc1ccccc1)NC(=O)[C@H](CC(N)=O)NC(=O)[C@H](CCC(N)=O)NC(=O)[C@H](CO)NC(=O)[C@H](CO)NC(=O)[C@H](Cc1c[nH]cn1)NC(=O)[C@H](CCCNC(=N)N)NC(=O)[C@H](CC(C)C)NC(=O)[C@H](Cc1ccccc1)NC(=O)[C@H](CCC(=O)O)NC(=O)[C@H](C)NC(=O)[C@H](CC(C)C)NC(=O)[C@H](CCCNC(=N)N)NC(=O)[C@H](CCC(N)=O)NC(=O)[C@@H](NC(=O)[C@H](C)NC(=O)[C@@H]1CSSC[C@H](NC(=O)[C@H](CCCNC(=N)N)NC(=O)[C@H](CCC(=O)O)NC(=O)[C@H](CCC(=O)O)NC(=O)CC[C@H](NC(=O)CCCCCCCCCCCCCCCCCCC(=O)O)C(=O)O)C(=O)N[C@@H](CC(N)=O)C(=O)N[C@@H]([C@@H](C)O)C(=O)N[C@@H](C)C(=O)N[C@@H]([C@@H](C)O)C(=O)N1)[C@@H](C)O)C(=O)N[C@@H](CC(C)C)C(=O)N1CCC[C@H]1C(=O)N1CCC[C@H]1C(=O)N[C@H](C(=O)N[C@@H](CC(N)=O)C(=O)N[C@H](C(=O)NCC(=O)N[C@@H](CO)C(=O)N[C@@H](CC(N)=O)C(=O)N[C@H](C(=O)N1CCC[C@H]1C(N)=O)[C@@H](C)O)C(C)C)[C@@H](C)O [Example 157, N-alpha-[(S)-4-Carboxy-4-(19-carboxynonadecanoylamino)butyryl]-Glu-Glu-[Arg1,Glu14,Arg17,Gln21,Pro37]-pramlintide] ({C20 diacid-γGlu}-EERCNTATCATQRLAEFLRHSSQNFGPILPPTNVGSNTP-NH2; disulfide 4-9 (inferred); C-terminus assumed)
1.13	1.19	> 200	> 200	> 200	> 200	> 200	> 200	> 200	> 200	> 200	> 200	CC[C@H](C)[C@H](NC(=O)[C@@H]1CCCN1C(=O)CNC(=O)[C@H](Cc1ccccc1)NC(=O)[C@H](CC(N)=O)NC(=O)[C@H](CCC(N)=O)NC(=O)[C@H](CO)NC(=O)[C@H](CO)NC(=O)[C@H](Cc1c[nH]cn1)NC(=O)[C@H](CCCNC(=N)N)NC(=O)[C@H](CC(C)C)NC(=O)[C@H](Cc1ccccc1)NC(=O)[C@H](CCC(=O)O)NC(=O)[C@H](C)NC(=O)[C@H](CC(C)C)NC(=O)[C@H](CCCNC(=N)N)NC(=O)[C@H](CCC(N)=O)NC(=O)[C@@H](NC(=O)[C@H](C)NC(=O)[C@@H]1CSSC[C@H](NC(=O)[C@H](CCCNC(=N)N)NC(=O)[C@H](CCC(=O)O)NC(=O)[C@H](CCC(=O)O)NC(=O)CC[C@H](NC(=O)CCCCCCCCCCCCCCCCCCC(=O)O)C(=O)O)C(=O)N[C@@H](CC(N)=O)C(=O)N[C@@H]([C@@H](C)O)C(=O)N[C@@H](C)C(=O)N[C@@H]([C@@H](C)O)C(=O)N1)[C@@H](C)O)C(=O)N[C@@H](CC(C)C)C(=O)N1CCC[C@H]1C(=O)N1CCC[C@H]1C(=O)N[C@H](C(=O)N[C@@H](CC(N)=O)C(=O)N[C@H](C(=O)NCC(=O)N[C@@H](CO)C(=O)N[C@@H](CCC(N)=O)C(=O)N[C@H](C(=O)N1CCC[C@H]1C(N)=O)[C@@H](C)O)C(C)C)[C@@H](C)O [Example 158, N-alpha-[(S)-4-Carboxy-4-(19-carboxynonadecanoylamino)butyryl]-Glu-Glu-[Arg1,Glu14,Arg17,Gln21,Gln35,Pro37]-pramlintide] ({C20 diacid-γGlu}-EERCNTATCATQRLAEFLRHSSQNFGPILPPTNVGSQTP-NH2; disulfide 4-9 (inferred))
